We go through 30 molecules from patent US10836725B2, “Modulators of the integrated stress pathway” (Calico Life Sciences LLC, priority 2016, dated 2020).

pEC50: −log10 of the molar value.

This assay deals with ATF4 luciferase reporter. Description: ATF4-Luc assay in HEK293T cells carrying the ATF4 luciferase reporter (in vitro model of VWMD). Type of assay: cell-based, human. The following applies: Homo sapiens, HEK-293T, 1 μg/mL tunicamycin, 7 hours, luminescence (One Glo). As to the method: In order to test exemplary compounds of the invention in a cellular context, a stable VWMD cell line was first constructed. The ATF4 reporter was prepared by fusing the human full-length ATF4 5′-UTR (NCBI Accession No. BC022088.2) in front of the firefly luciferase (FLuc) coding sequence lacking the initiator methionine as described in Sidrauski et al (eLife 2013). The construct was used to produce recombinant retroviruses using standard methods and the resulting viral supernatant was used to transduce HEK293T cells, which were then subsequently selected with puromycin to generate a stable cell line.
HEK293T cells carrying the ATF4 luciferase reporter were plated on polylysine coated 384-well plates (Greiner Bio-one) at 30,000 cells per well. Cells were treated the next day with 1 μg/mL tunicamycin and 200 nM of a compound of Formula (I) for 7 hours. Luminescence was measured using One Glo (Promega) as specified by the manufacturer. Cells were maintained in DMEM with L-glutamine supplemented with 10% heat-inactivated FBS (Gibco) and Antibiotic-Antimycotic solution (Gibco).
Table 2 below summarizes the EC50 data obtained using the ATF4-Luc assay for exemplary compounds of the invention.
Consider `O=C(COc1ccc(Cl)c(F)c1)NC12CCC(C(=O)NCc3ccc(C(F)(F)F)cn3)(CC1)[C@H](O)C2` (single isomer, unassigned) [Compound 113], for which the negative logarithm of the EC50 (pEC50) was greater than 6.60. Next, `O=C(COc1ccc(Cl)c(F)c1)NC12CCC(C(=O)NCc3ccc(C(F)(F)F)cn3)(CC1)[C@@H](O)C2` (single isomer, unassigned) [Compound 114]: greater than 6.60; `O=C(COc1ccc(Cl)cc1)NC12CC(C(=O)NCCOc3ccc(Cl)cc3)(C1)C2` [Compound 100, 3-[2-(4-chlorophenoxy)acetamido]-N-[2-(4-chlorophenoxy)ethyl]bicyclo[1.1.1]-pentane-1-carboxamide]: greater than 6.60. Next, `Cc1cccc(OCCNC(=O)C23CC(NC(=O)COc4ccc(Cl)cc4)(C2)C3)c1` [Compound 101, 3-[2-(4-chlorophenoxy)acetamido]-N-[2-(3-methylphenoxy)ethyl]bicyclo[1.1.1]-pentane-1-carboxamide]: 5.70 to 6.00; `O=C(COc1ccc(Cl)cc1)NC12CC(C(=O)NCCOc3ccc(F)cc3)(C1)C2` [Compound 102, 3-[2-(4-chlorophenoxy)acetamido]-N-[2-(4-fluorophenoxy)ethyl]bicyclo[1.1.1]-pentane-1-carboxamide]: 6.30 to 6.60.

In the case of `Cc1cc(OCCNC(=O)C23CC(NC(=O)COc4ccc(Cl)cc4)(C2)C3)ccc1Cl` [Compound 103, N-[2-(4-chloro-3-methylphenoxy)ethyl]-3-[2-(4-chlorophenoxy)acetamido]-bicyclo[1.1.1]pentane-1-carboxamide], the negative-log EC50 (pEC50) was 6.30 to 6.60. For `O=C(COc1ccc(Cl)cc1)NC12CC(C(=O)NCCOc3cccc(F)c3)(C1)C2` [Compound 104, 3-[2-(4-chlorophenoxy)acetamido]-N-[2-(3-fluorophenoxy)ethyl]bicyclo-[1.1.1]pentane-1-carboxamide], the negative-log EC50 (pEC50) is 6.30 to 6.60. Next, `Cc1ccc(OCCNC(=O)C23CC(NC(=O)COc4ccc(Cl)cc4)(C2)C3)cc1` [Compound 105, 3-[2-(4-chlorophenoxy)acetamido]-N-[2-(4-methylphenoxy)ethyl]bicyclo-[1.1.1]pentane-1-carboxamide]: 6.00 to 6.30.

In the case of `O=C(COc1ccc(Cl)c(F)c1)NC12CCC(C(=O)NCc3ccc(C(F)(F)F)cn3)(CC1)C(O)C2` (stereo not drawn) [Compound 106], the pEC50 is greater than 6.60. In the case of `O=C(COc1ccc(Cl)c(F)c1)NC12CCC(C(=O)NCCOc3ccc(Cl)cc3)(CC1)C(O)C2` (stereo not drawn) [Compound 107, 4-[2-(4-chloro-3-fluorophenoxy)acetamido]-N-[2-(4-chlorophenoxy)ethyl]-2-hydroxybicyclo[2.2.2]octane-1-carboxamide] it was greater than 6.60.

With `O=C(COc1ccc(Cl)c(F)c1)NC12CCC(C(=O)NCc3ccc(Cl)cn3)(CC1)C(O)C2` (stereo not drawn) [Compound 108, 4-[2-(4-chloro-3-fluorophenoxy)acetamido]-N-[(5-chloropyridin-2-yl)methyl]-2-hydroxybicyclo[2.2.2]octane-1-carboxamide], the pEC50 was greater than 6.60. With `CC(C)c1cc(CNC(=O)C23CCC(NC(=O)COc4ccc(Cl)c(F)c4)(CC2)CC3O)on1` (stereo not drawn) [Compound 109, 4-[2-(4-chloro-3-fluorophenoxy)acetamido]-2-hydroxy-N-{[3-(propan-2-yl)-1,2-oxazol-5-yl]methyl}bicyclo[2.2.2]octane-1-carboxamide], the negative logarithm of the EC50 (pEC50) is 6.00 to 6.30. In the case of `O=C(COc1ccc(Cl)c(F)c1)NC12CCC(C(=O)NCc3ccc(C(F)(F)F)cc3)(CC1)C(O)C2` (stereo not drawn) [Compound 110, 4-[2-(4-chloro-3-fluorophenoxy)acetamido]-2-hydroxy-N-{[4-(trifluoromethyl)phenyl]methyl}bicyclo[2.2.2]octane-1-carboxamide] it was greater than 6.60. In the case of `Cc1cc(C)c(CNC(=O)C23CCC(NC(=O)COc4ccc(Cl)c(F)c4)(CC2)CC3O)cn1` (stereo not drawn) [Compound 111, 4-[2-(4-chloro-3-fluorophenoxy)acetamido]-N-[(4,6-dimethylpyridin-3-yl)methyl]-2-hydroxybicyclo[2.2.2]octane-1-carboxamide] it was less than 5.70; in that of `O=C(COc1ccc(Cl)c(F)c1)NC12CCC(C(=O)NCc3cncc(F)c3)(CC1)C(O)C2` (stereo not drawn) [Compound 112, 4-[2-(4-chloro-3-fluorophenoxy)acetamido]-N-[(5-fluoropyridin-3-yl)methyl]-2-hydroxybicyclo[2.2.2]octane-1-carboxamide], less than 5.70; in that of `O=C(COc1ccc(Cl)c(F)c1)NC12CCC(C(=O)NCc3cocn3)(CC1)C(O)C2` (stereo not drawn) [Compound 115, 4-[2-(4-chloro-3-fluorophenoxy)acetamido]-2-hydroxy-N-[(1,3-oxazol-4-yl)methyl]bicyclo[2.2.2]octane-1-carboxamide], less than 5.70.

With `Cn1ccc(CNC(=O)C23CCC(NC(=O)COc4ccc(Cl)c(F)c4)(CC2)CC3O)n1` (stereo not drawn) [Compound 116, 4-[2-(4-chloro-3-fluorophenoxy)acetamido]-2-hydroxy-N-[(1-methyl-1H-pyrazol-3-yl)methyl]bicyclo[2.2.2]octane-1-carboxamide], the negative logarithm of the EC50 (pEC50) was less than 5.70.

Turning to `O=C(COc1ccc(Cl)c(F)c1)NC12CC(C(=O)NCc3ccc(Cl)cc3)(C1)C2` [Compound 117, 3-[2-(4-chloro-3-fluorophenoxy)acetamido]-N-[(4-chlorophenyl)methyl]bicyclo[1.1.1]pentane-1-carboxamide], the pEC50 was greater than 6.60.

As for `O=C(COc1ccc(Cl)c(F)c1)NC12CC(C(=O)NCc3ccc(C(F)(F)F)cn3)(C1)C2` [Compound 118, 3-[2-(4-chloro-3-fluorophenoxy)acetamido]-N-{[5-(trifluoromethyl)pyridin-2-yl]methyl}bicyclo[1.1.1]pentane-1-carboxamide], the pEC50 is greater than 6.60. In the case of `Cc1cnc(CNC(=O)C23CCC(NC(=O)COc4ccc(Cl)c(F)c4)(CC2)CC3O)cn1` (stereo not drawn) [Compound 119, 4-[2-(4-chloro-3-fluorophenoxy)acetamido]-2-hydroxy-N-[(5-methylpyrazin-2-yl)methyl]bicyclo[2.2.2]octane-1-carboxamide] it was 5.70 to 6.00; in that of `O=C(COc1ccc(Cl)c(F)c1)NC12CCC(C(=O)NCc3cc(C(F)(F)F)ccn3)(CC1)C(O)C2` (stereo not drawn) [Compound 120, 4-[2-(4-chloro-3-fluorophenoxy)acetamido]-2-hydroxy-N-{[4-(trifluoromethyl)pyridin-2-yl]methyl}bicyclo[2.2.2]octane-1-carboxamide], greater than 6.60. Consider `CS(=O)(=O)c1ccc(CNC(=O)C23CCC(NC(=O)COc4ccc(Cl)c(F)c4)(CC2)CC3O)nc1` (stereo not drawn) [Compound 121, 4-[2-(4-chloro-3-fluorophenoxy)acetamido]-2-hydroxy-N-{[5-(methanesulfonyl)pyridin-2-yl]methyl}bicyclo[2.2.2]octane-1-carboxamide], for which the pEC50 is less than 5.70.

Turning to `O=C(COc1ccc(F)cc1)NC12CCC(C(=O)NCc3ccc(C(F)(F)F)cn3)(CC1)C(O)C2` (stereo not drawn) [Compound 122, 4-[2-(4-fluorophenoxy)acetamido]-2-hydroxy-N-{[5-(trifluoromethyl)pyridin-2-yl]methyl}bicyclo[2.2.2]octane-1-carboxamide], the negative logarithm of the EC50 (pEC50) was greater than 6.60. In the case of `O=C(COc1ccc(F)cc1)NC12CCC(C(=O)NCc3ccc(C(F)(F)F)cc3)(CC1)C(O)C2` (stereo not drawn) [Compound 123, 4-[2-(4-fluorophenoxy)acetamido]-2-hydroxy-N-{[4-(trifluoromethyl)phenyl]methyl}bicyclo[2.2.2]octane-1-carboxamide] it was greater than 6.60; in that of `Cc1cccc(CNC(=O)C23CCC(NC(=O)COc4ccc(Cl)c(F)c4)(CC2)CC3O)c1` (stereo not drawn) [Compound 124, 4-[2-(4-chloro-3-fluorophenoxy)acetamido]-2-hydroxy-N-[(3-methylphenyl)methyl]bicyclo[2.2.2]octane-1-carboxamide], 6.00 to 6.30. Next, `Cc1ccc(CNC(=O)C23CCC(NC(=O)COc4ccc(Cl)c(F)c4)(CC2)CC3O)cc1` (stereo not drawn) [Compound 125, 4-[2-(4-chloro-3-fluorophenoxy)acetamido]-2-hydroxy-N-[(4-methylphenyl)methyl]bicyclo[2.2.2]octane-1-carboxamide]: greater than 6.60; `O=C(COc1ccc(Cl)c(F)c1)NC12CCC(C(=O)NCc3cc(F)cc(C(F)(F)F)c3)(CC1)C(O)C2` (stereo not drawn) [Compound 126, 4-[2-(4-chloro-3-fluorophenoxy)acetamido]-N-{[3-fluoro-5-(trifluoromethyl)phenyl]methyl}-2-hydroxybicyclo[2.2.2]octane-1-carboxamide]: less than 5.70; `COc1cccc(CNC(=O)C23CCC(NC(=O)COc4ccc(Cl)c(F)c4)(CC2)CC3O)c1` (stereo not drawn) [Compound 127, 4-[2-(4-chloro-3-fluorophenoxy)acetamido]-2-hydroxy-N-[(3-methoxyphenyl)methyl]bicyclo[2.2.2]octane-1-carboxamide]: 5.70 to 6.00.

As to `COc1ccc(CNC(=O)C23CCC(NC(=O)COc4ccc(Cl)c(F)c4)(CC2)CC3O)cc1` (stereo not drawn) [Compound 128, 4-[2-(4-chloro-3-fluorophenoxy)acetamido]-2-hydroxy-N-[(4-methoxyphenyl)methyl]bicyclo[2.2.2]octane-1-carboxamide], the negative logarithm of the EC50 (pEC50) was greater than 6.60. In the case of `O=C(COc1ccc(Cl)c(F)c1)NC12CCC(C(=O)NCc3cccc(F)c3)(CC1)C(O)C2` (stereo not drawn) [Compound 129, 4-[2-(4-chloro-3-fluorophenoxy)acetamido]-N-[(3-fluorophenyl)methyl]-2-hydroxybicyclo[2.2.2]octane-1-carboxamide], the pEC50 is 6.30 to 6.60.
